Five compounds from US8598314B2 (priority 2007, dated 2013) can be followed below.

The target in assay [1] is T1, human GIP receptor (HEK-GIPR) (Homo sapiens, UniProt P48546).
T1 construct: expressed in transfected cells
T1 sequence (P48546 22-466): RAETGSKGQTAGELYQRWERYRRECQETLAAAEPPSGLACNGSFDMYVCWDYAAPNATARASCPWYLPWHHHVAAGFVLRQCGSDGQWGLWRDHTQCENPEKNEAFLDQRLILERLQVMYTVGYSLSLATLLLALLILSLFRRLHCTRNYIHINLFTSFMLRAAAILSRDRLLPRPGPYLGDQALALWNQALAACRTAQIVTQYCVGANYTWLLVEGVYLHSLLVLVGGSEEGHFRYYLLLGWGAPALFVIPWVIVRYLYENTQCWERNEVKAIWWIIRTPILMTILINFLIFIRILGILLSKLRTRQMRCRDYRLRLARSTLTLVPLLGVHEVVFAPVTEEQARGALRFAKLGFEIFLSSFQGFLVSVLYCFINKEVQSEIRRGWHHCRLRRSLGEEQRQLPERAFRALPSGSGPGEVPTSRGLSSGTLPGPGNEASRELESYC
Put plainly: GIP receptor binding (RBA) displacement assay. As to conditions: for inhibition at 0.01 µM: read-out: GIP RBA % inhibition at 10 nM. The protocol:
Membrane fractions were prepared from confluent cell cultures of HEK-GIPR, snap frozen, and stored at −80° C. until use. […] Reactions were allowed to proceed to equilibrium for 90 minutes at room temperature with constant shaking. The reaction mixtures were then filtered through 96-well glass fiber filter plates separating bound and unbound fractions of radioligand.

Another assay has as its system NIH/Swiss mice. Nature of the assay: Oral glucose tolerance test (OGTT), glucose lowering. Type of assay: in vivo. To be noted: 30 nM/kg, blood glucose. The method, then:
. Test compounds were injected IP (t=0 min) immediately following baseline measurements of 2 hour fasted NIH/Swiss mice. Blood samples were taken at 60, 120, and 180 minutes after injection. In some assays, samples were also taken at 240 minutes after the injection. Blood glucose was measured with a One-Touch® Ultra® glucose meter (LifeScan, Inc., Milpitas, Calif.). […].
The tests were performed as described in Example 5.

Take `CC[C@H](C)[C@H](NC(=O)[C@H](CO)NC(=O)[C@H](Cc1ccc(O)cc1)NC(=O)[C@H](CC(=O)O)NC(=O)[C@H](CO)NC(=O)[C@@H](NC(=O)[C@H](Cc1ccccc1)NC(=O)[C@@H](NC(=O)CNC(=O)[C@H](CCC(=O)O)NC(=O)[C@H](C)NC(=O)[C@H](Cc1ccc(O)cc1)NC(=O)COCCOCCNC(=O)COCCOCCNC(=O)CC[C@H](N)C(=O)N1CCC[C@H]1C#N)[C@@H](C)O)[C@@H](C)CC)C(=O)N[C@@H](C)C(=O)N[C@@H](CCSC)C(=O)N[C@@H](CC(=O)O)C(=O)N[C@@H](CCCCN)C(=O)N[C@H](C(=O)N[C@@H](Cc1c[nH]cn1)C(=O)N[C@@H](CCC(N)=O)C(=O)N[C@@H](CCC(N)=O)C(=O)N[C@@H](CC(=O)O)C(=O)N[C@@H](Cc1ccccc1)C(=O)N[C@H](C(=O)N[C@@H](CC(N)=O)C(=O)N[C@@H](Cc1c[nH]c2ccccc12)C(=O)N[C@@H](CC(C)C)C(=O)N[C@@H](CC(C)C)C(=O)N[C@@H](C)C(=O)N[C@@H](CCC(N)=O)C(=O)NC(CCCCN)C(N)=O)C(C)C)[C@@H](C)CC` (stereo partly drawn) [N-(γ-L-Glu-2-(S)-cyanopyrrolidyl)-Ado-Ado) GIP(1-30)]: the inhibition at 0.01 µM in assay [1] amounted to 32%.
In the case of `CC[C@H](C)[C@H](NC(=O)[C@H](CO)NC(=O)[C@H](Cc1ccc(O)cc1)NC(=O)[C@H](CC(=O)O)NC(=O)[C@H](CO)NC(=O)[C@@H](NC(=O)[C@H](Cc1ccccc1)NC(=O)[C@@H](NC(=O)CNC(=O)[C@H](CCC(=O)O)NC(=O)[C@@H](C)NC(=O)[C@@H](N)Cc1ccc(O)cc1)[C@@H](C)O)[C@@H](C)CC)C(=O)N[C@@H](C)C(=O)N[C@@H](CC(C)C)C(=O)N[C@@H](CC(=O)O)C(=O)N[C@@H](CCCCN)C(=O)N[C@H](C(=O)N[C@@H](Cc1c[nH]cn1)C(=O)N[C@@H](CCC(N)=O)C(=O)N[C@@H](CCC(N)=O)C(=O)N[C@@H](CC(=O)O)C(=O)N[C@@H](Cc1ccccc1)C(=O)N[C@H](C(=O)N[C@@H](CC(N)=O)C(=O)N[C@@H](Cc1c[nH]c2ccccc12)C(=O)N[C@@H](CC(C)C)C(=O)N[C@@H](CC(C)C)C(=O)N[C@@H](C)C(=O)N[C@@H](CCC(N)=O)C(=O)N[C@@H](CCCCN)C(=O)NCCC(=O)NCCC(=O)NCCCC[C@H](NC(=O)[C@@H]1CCC(=O)N1)C(=O)N[C@@H](Cc1c[nH]c2ccccc12)C(=O)N[C@@H](C)C(=O)N1CCC[C@H]1C(=O)O)C(C)C)[C@@H](C)CC` [[^2D-Ala,^14Leu] GIP-(1-30)-β-Ala-β-Ala-Lys(α-NH-Pyroglutamoyl)-Trp-Ala-Pro-COOH], the inhibition at 0.01 µM in assay [1] came to 66%.
Consider `CC[C@H](C)[C@H](NC(=O)[C@H](CO)NC(=O)[C@H](Cc1ccc(O)cc1)NC(=O)[C@H](CC(=O)O)NC(=O)[C@H](CO)NC(=O)[C@@H](NC(=O)[C@H](Cc1ccccc1)NC(=O)[C@@H](NC(=O)CNC(=O)[C@H](CCC(=O)O)NC(=O)[C@@H](C)NC(=O)[C@@H](N)Cc1ccc(O)cc1)[C@@H](C)O)[C@@H](C)CC)C(=O)N[C@@H](C)C(=O)N[C@@H](CCSC)C(=O)N[C@@H](CC(=O)O)C(=O)N[C@@H](CCCCN)C(=O)N[C@H](C(=O)N[C@@H](Cc1c[nH]cn1)C(=O)N[C@@H](CCC(N)=O)C(=O)N[C@@H](CCC(N)=O)C(=O)N[C@@H](CC(=O)O)C(=O)N[C@@H](Cc1ccccc1)C(=O)N[C@H](C(=O)N[C@@H](CC(N)=O)C(=O)N[C@@H](Cc1c[nH]c2ccccc12)C(=O)N[C@@H](CC(C)C)C(=O)N[C@@H](CC(C)C)C(=O)N[C@@H](C)C(=O)N[C@@H](CCC(N)=O)C(=O)N[C@@H](CCCCN)C(=O)NCCOCCOCC(=O)NCCOCCOCC(=O)NCCCCCCCCCCC(=O)NCCC(=O)NCCC(=O)NCCCC[C@H](NC(=O)[C@@H]1CCC(=O)N1)C(=O)N[C@@H](Cc1c[nH]c2ccccc12)C(=O)N[C@@H](C)C(=O)N1CCC[C@H]1C(=O)O)C(C)C)[C@@H](C)CC` [[^2D-Ala]GIP-(1-30)-Ado-Ado-Aun-βAla-βAla-ε-NH-Lys(α-NH-Pyroglutamoyl)-Trp-Ala-Pro], for which the inhibition at 0.01 µM in assay [1] is 70%.
With `CC[C@H](C)[C@H](NC(=O)[C@H](CO)NC(=O)[C@H](Cc1ccc(O)cc1)NC(=O)[C@H](CC(=O)O)NC(=O)[C@H](CO)NC(=O)[C@@H](NC(=O)[C@H](Cc1ccccc1)NC(=O)[C@@H](NC(=O)CNC(=O)[C@H](CCC(=O)O)NC(=O)[C@@H](C)NC(=O)[C@@H](N)Cc1ccc(O)cc1)[C@@H](C)O)[C@@H](C)CC)C(=O)N[C@@H](C)C(=O)N[C@@H](CC(C)C)C(=O)N[C@@H](CC(=O)O)C(=O)N[C@@H](CCCCN)C(=O)N[C@H](C(=O)N[C@@H](Cc1c[nH]cn1)C(=O)N[C@@H](CCC(N)=O)C(=O)N[C@@H](CCC(N)=O)C(=O)N[C@@H](CC(=O)O)C(=O)N[C@@H](Cc1ccccc1)C(=O)N[C@H](C(=O)N[C@@H](CC(N)=O)C(=O)N[C@@H](Cc1c[nH]c2ccccc12)C(=O)N[C@@H](CC(C)C)C(=O)N[C@@H](CC(C)C)C(=O)N[C@@H](C)C(=O)N[C@@H](CCC(N)=O)C(=O)N[C@@H](CCCCN)C(=O)N1CCC[C@H]1C(=O)N[C@@H](CO)C(=O)N[C@@H](CO)C(=O)NCC(=O)N[C@@H](C)C(=O)N1CCC[C@H]1C(=O)N1CCC[C@H]1C(=O)N1CCC[C@H]1C(=O)N[C@@H](CO)C(=O)NCCOCCOCC(=O)NCCOCCOCC(=O)NCCCCCCCCCCC(=O)NCCC(=O)NCCC(=O)NCCCC[C@H](NC(=O)[C@@H]1CCC(=O)N1)C(=O)N[C@@H](Cc1c[nH]c2ccccc12)C(=O)N[C@@H](C)C(=O)N1CCC[C@H]1C(=O)O)C(C)C)[C@@H](C)CC` [[^2D-Ala^14Leu] GIP(1-30)-exendin-4(31-39)-Ado-Ado-Aun-βAla-βAla-ε-NH-Lys(α-NH-Pyroglutamoyl)-Trp-Ala-Pro], the inhibition at 0.01 µM in assay [1] is 86%.
As for “[^14Leu] GIP(1-30)-exendin-4(31-39)-Ado-Lys-N-ε-(2-(S)-cyano pyrrolidyl)”, the “OGTT (30 nM/kg) % maximal decrease” value in the assay with NIH/Swiss mice is on record as −24%. Also, the “GIP RBA % inhibition at 10 nM” value in assay [1] (10 nM conjugate, 30 pM 125I-GIP, relative to human GIP (100%)) came to 99%.
